Patent publication US11498896B2 (The Broad Institute, Inc., priority 2014, dated 2022)

Tests used:
human D2R/β-arrestin [1] = target: T1, human D2R/β-arrestin (Homo sapiens (Human), UniProt P14416); test: cell-based; settings: cAMP Antagonist, CHO-K1 cells expressing human D2R/β-arrestin; antagonist mode, 2.5 μM forskolin and 2.7 nM quinpirole
Experimental: Cells were prepared for assays by growing cultures for up to 2 weeks (from about 6-20 passages). A vial of frozen cells was thawed in a water bath held at 37° C. The cells were then transferred into a 50 ml tube with 10 ml growth media. The vial was rinsed with growth media and the contents transferred to the 50 ml tube. The 50 ml tube was centrifuged at 1200 rpm for 5 minutes at room temperature. […] When the cells reached about 90% confluence (approximately 3 days between passages), the cells were passaged and used for either the agonist or antagonist assays as described below.
The cells were prepared for Gi/cAMP assays as described above. The assays were performed using a PE Lance Ultra cAMP kit (TRF0263). The cells were grown on 225 mm dishes, then washed once with 1×PBS (Cellgro) before digestion with 2.5 ml 1× Detachment reagent (DRX 92-0009) for about 2 minutes. PBS (20 ml) was then added to the plate, and the cells were transferred to a 50 ml centrifuge tube, and centrifuged at room temperature using BD Dynac III, at 1200 rpm for 5 minutes. […] The plates were then incubated at room temperature for about 30 minutes before addition of Eu-cAMP tracer solution (10 μl, PerkinElmer) and then ULight-anti-cAMP solution (10 μl) to each well.

human D2R/β-arrestin [2] = target: T1, human D2R/β-arrestin; test: cell-based; settings: β-arrestin Antagonist, CHO-K1 cells expressing human D2R/β-arrestin; antagonist mode, quinpirole 130 nM
human D2R/β-arrestin [3] = target: T1, human D2R/β-arrestin; test: β-arrestin agonist assay (PathHunter); format: cell-based; settings: CHO-K1 cells expressing human D2R/β-arrestin; agonist mode
Experimental: The detection reagent (9.6 μL, Buffer:Emerald II:Galactor-Star in a 19:5:1 ratio, i.e., 14.06 mL:3.7 mL:0.74 mL=18.5 mL) was then added to the agonist plates.

human D2R/β-arrestin [4] = target: T1, human D2R/β-arrestin; test: Gi/cAMP agonist assay (Lance Ultra cAMP, forskolin); format: cell-based; settings: CHO-K1 cells expressing human D2R/β-arrestin; agonist mode, 2.5 μM forskolin
Experimental: Eu-cAMP tracer solution (10 μl, PerkinElmer, 360 μl of Tracer in 17.64 ml kit buffer) and ULight-anti-cAMP solution (10 μl, 120 μL antibody in 17.88 ml kit buffer) was then added to each well.

T1 sequence (P14416 whole entry): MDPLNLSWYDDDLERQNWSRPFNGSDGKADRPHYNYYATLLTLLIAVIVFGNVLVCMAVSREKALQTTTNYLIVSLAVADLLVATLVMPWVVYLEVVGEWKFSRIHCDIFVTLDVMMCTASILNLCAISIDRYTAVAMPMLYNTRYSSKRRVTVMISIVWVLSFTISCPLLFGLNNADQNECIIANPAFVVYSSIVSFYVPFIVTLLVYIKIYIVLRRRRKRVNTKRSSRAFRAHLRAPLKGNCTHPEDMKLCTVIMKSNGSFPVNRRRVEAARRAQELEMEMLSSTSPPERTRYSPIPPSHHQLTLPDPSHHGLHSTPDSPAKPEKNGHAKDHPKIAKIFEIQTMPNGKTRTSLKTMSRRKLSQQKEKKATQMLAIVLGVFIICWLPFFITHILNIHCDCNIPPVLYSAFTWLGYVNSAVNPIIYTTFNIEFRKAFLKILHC

Row | SMILES | IC50 (human D2R/β-arrestin [1]) [µM] | IC50 (human D2R/β-arrestin [2]) [nM] | EC50 (human D2R/β-arrestin [3]) [µM] | EC50 (human D2R/β-arrestin [4]) [nM]
1 | CC1(Oc2ccccc2Cl)CCN(CCOc2ccccc2)C1 (stereo not drawn) [Example 47, 3-(2-chlorophenoxy)-3-methyl-1-(2-phenoxyethyl)pyrrolidine] | > 30 | 1000 to 10000 | > 30 | 100 to 1000
2 | CC1(Oc2ccc(Cl)cc2Cl)CCN(CCOc2ccccc2)C1 (stereo not drawn) [Example 48, 3-(2,4-dichlorophenoxy)-3-methyl-1-(2-phenoxyethyl)pyrrolidine] | > 30 | 10000 to 30000 | > 30 | < 100
3 | CC1(Oc2cccc(Cl)c2Cl)CCN(CCOc2ccccc2)C1 (stereo not drawn) [Example 49, 3-(2,3-dichlorophenoxy)-3-methyl-1-(2-phenoxyethyl)pyrrolidine] | > 30 | 10000 to 30000 | > 30 | 100 to 1000
4 | CC1(Oc2ccc(F)cc2)CCN(CCOc2ccccc2)C1 (stereo not drawn) [Example 51, 3-(4-fluorophenoxy)-3-methyl-1-(2-phenoxyethyl)pyrrolidine] | > 30 | 100 to 1000 | > 30 | < 100
5 | CC1(Oc2cccc(F)c2)CCN(CCOc2ccccc2)C1 (stereo not drawn) [Example 52, 3-(3-fluorophenoxy)-3-methyl-1-(2-phenoxyethyl)pyrrolidine] | > 30 | 1000 to 10000 | > 30 | < 100
6 | CC1(Oc2ccccc2C(F)(F)F)CCN(CCOc2ccccc2)C1 (stereo not drawn) [Example 56, 3-Methyl-1-(2-phenoxyethyl)-3-(2-(trifluoromethyl)phenoxy) pyrrolidine] | 1 to 10 | 1000 to 10000 | > 30 | < 100
7 | CC1(Oc2ccccn2)CCN(CCOc2ccccc2)C1 (stereo not drawn) [Example 57, 2-((3-methyl-1-(2-phenoxyethyl)pyrrolidin-3-yl)oxy)pyridine] | > 30 | 1000 to 10000 | > 30 | 100 to 1000
8 | CC1(Oc2cccnc2)CCN(CCOc2ccccc2)C1 (stereo not drawn) [Example 58, 3-((3-methyl-1-(2-phenoxyethyl)pyrrolidin-3-yl)oxy)pyridine] | > 30 | > 30000 | 1 to 10 | < 100
9 | CC1(Oc2cnccn2)CCN(CCOc2ccccc2)C1 (stereo not drawn) [Example 60, 2-((3-methyl-1-(2-phenoxyethyl)pyrrolidin-3-yl)oxy)pyrazine] | > 30 | > 30000 | 0.1 to 1 | < 100
10 | CC1(Oc2cccc(C(F)(F)F)c2)CCCN(CCOc2ccccc2F)C1 (stereo not drawn) [Example 61, 1-(2-(2-Fluorophenoxy)ethyl)-3-methyl-3-(3-(trifluoromethyl)phenoxy) piperidine] | 0.1 to 1 | 1000 to 10000 | > 30 | > 30000
11 | CC1(Oc2cccc(C(F)(F)F)c2)CCCN(CCOc2cc(F)ccc2F)C1 (stereo not drawn) [Example 62, 1-(2-(2,5-Difluorophenoxy)ethyl)-3-methyl-3-(3-(trifluoromethyl)phenoxy)piperidine] | 1 to 10 | 1000 to 10000 | > 30 | > 30000
12 | CC1(Oc2cccc(C(F)(F)F)c2)CCCN(CCOc2ccccc2Cl)C1 (stereo not drawn) [Example 63, 1-(2-(2-Chlorophenoxy)ethyl)-3-methyl-3-(3-(trifluoromethyl)phenoxy) piperidine] | 1 to 10 | 1000 to 10000 | > 30 | > 30000
13 | CC1(Oc2cccc(C(F)(F)F)c2)CCN(CCOc2ccccc2F)C1 (stereo not drawn) [Example 64, 1-(2-(2-fluorophenoxy)ethyl)-3-methyl-3-(3-(trifluoromethyl)phenoxy) pyrrolidine] | > 30 | 10000 to 30000 | > 30 | 100 to 1000
14 | CC1(Oc2cccc(C(F)(F)F)c2)CCN(CCOc2ccccc2Cl)C1 (stereo not drawn) [Example 65, 1-(2-(2-Chlorophenoxy)ethyl)-3-methyl-3-(3-(trifluoromethyl)phenoxy) pyrrolidine] | 0.1 to 1 | 1000 to 10000 | > 30 | > 30000
15 | CC1(Oc2cccc(C(F)(F)F)c2)CCN(CCOc2cc(F)ccc2F)C1 (stereo not drawn) [Example 66, 1-(2-(2,5-difluorophenoxy)ethyl)-3-methyl-3-(3-(trifluoromethyl)phenoxy)pyrrolidine] | 10 to 30 | 1000 to 10000 | > 30 | < 100
16 | CC1(Oc2ccccc2)CCN(CCOc2cccc(C(F)(F)F)c2)CC1 [Example 67, 4-methyl-4-phenoxy-1-(2-(3-(trifluoromethyl)phenoxy)ethyl)piperidine] | > 30 | 100 to 1000 | > 30 | < 100
17 | Cc1ccccc1OCCN1CCC(C)(Oc2ccccc2)CC1 [Example 69, 4-methyl-4-phenoxy-1-(2-(o-tolyloxy)ethyl)piperidine] | > 30 | 100 to 1000 | < 0.1 | < 100

Row | SMILES | IC50 (human D2R/β-arrestin [1]) [µM] | IC50 (human D2R/β-arrestin [2]) [nM] | EC50 (human D2R/β-arrestin [3]) [µM] | EC50 (human D2R/β-arrestin [4]) [nM]
18 | CCc1ccccc1OCCN1CCC(C)(Oc2ccccc2)CC1 [Example 70, 1-(2-(2-Ethylphenoxy)ethyl)-4-methyl-4-phenoxypiperidine] | 10 to 30 | 100 to 1000 | > 30 | < 100
19 | CC(C)c1ccccc1OCCN1CCC(C)(Oc2ccccc2)CC1 [Example 71, 1-(2-(2-isopropylphenoxy)ethyl)-4-methyl-4-phenoxypiperidine] | 0.1 to 1 | 100 to 1000 | > 30 | > 30000
20 | COc1ccccc1OCCN1CCC(C)(Oc2ccccc2)CC1 [Example 72, 1-(2-(2-Methoxyphenoxy)ethyl)-4-methyl-4-phenoxypiperidine] | < 0.1 | 100 to 1000 | > 30 | < 100
21 | CC1(Oc2ccccc2)CCN(CCOc2ccc(F)cc2C(F)(F)F)CC1 [Example 75, 1-(2-(4-Fluoro-2-(trifluoromethyl)phenoxy)ethyl)-4-methyl-4-phenoxy piperidine] | 0.1 to 1 | 100 to 1000 | > 30 | > 30000
22 | CC1(Oc2ccccc2)CCN(CCOc2cc(F)ccc2C(F)(F)F)CC1 [Example 76, 1-(2-(5-fluoro-2-(trifluoromethyl)phenoxy)ethyl)-4-methyl-4-phenoxypiperidine] | > 30 | 100 to 1000 | > 30 | < 100
23 | CC1(Oc2ccccc2)CCN(CCn2cccc(C(F)(F)F)c2=O)CC1 [Example 77, 1-(2-(4-methyl-4-phenoxypiperidin-1-yl)ethyl)-3-(trifluoromethyl)pyridin-2(1H)-one] | > 30 | > 30000 | > 30 | 10000 to 30000
24 | CC1(Oc2ccccc2)CCN(C(C)(C)COc2ccccc2C(F)(F)F)CC1 [Example 80, 4-methyl-1-(2-methyl-1-(2-(trifluoromethyl)phenoxy)propan-2-yl)-4-phenoxypiperidine] | 1 to 10 | 1000 to 10000 | > 30 | 10000 to 30000
25 | CC(CO)N1CCC(C)(Oc2ccccc2)CC1 (stereo not drawn) [Example 81, 2-(4-Methyl-4-phenoxypiperidin-1-yl)propan-1-ol] | > 30 | 10000 to 30000 | > 30 | 1000 to 10000
26 | CC1CC(C)(Oc2ccccc2)CC(C)N1CCOc1ccccc1C(F)(F)F (stereo not drawn) [Example 83, 2,4,6-Trimethyl-4-phenoxy-1-(2-(2-(trifluoromethyl)phenoxy)ethyl) piperidine] | 0.1 to 1 | 1000 to 10000 | > 30 | > 30000
27 | COc1ccccc1OC1(C)CCN(CCOc2ccccc2)C1 (stereo not drawn) [Example 84, 3-(2-Methoxyphenoxy)-3-methyl-1-(2-phenoxyethyl)pyrrolidine] | > 30 | 1000 to 10000 | > 30 | 1000 to 10000
28 | Cc1ccccc1OC1(C)CCN(CCOc2ccccc2)C1 (stereo not drawn) [Example 85, 3-Methyl-1-(2-phenoxyethyl)-3-(o-tolyloxy)pyrrolidine] | > 30 | 1000 to 10000 | > 30 | < 100
29 | CC1(Oc2ccccc2)CCN(CCOc2ccccc2F)CC1 [Example 87, 1-(2-(2-fluorophenoxy)ethyl)-4-methyl-4-phenoxypiperidine] | > 30 | > 30000 | < 0.1 | < 100
30 | CC1(Oc2ccc(Cl)cc2)CCN(CCOc2ccccc2Cl)CC1 [Example 88, 4-(4-chlorophenoxy)-1-(2-(2-chlorophenoxy)ethyl)-4-methylpiperidine] | > 30 | < 100 | < 0.1 | < 100
31 | CC1(Oc2ccccc2)CCN(CCOc2ccccc2Cl)CC1 [Example 89, 1-(2-(2-Chlorophenoxy)ethyl)-4-methyl-4-phenoxypiperidine] | > 30 | < 100 | < 0.1 | < 100
32 | CC1(Oc2ccc(Cl)cc2)CCN(CCOc2ccc3ncoc3c2)C1 (stereo not drawn) [Example 92, 6-(2-(3-(4-Chlorophenoxy)-3-methylpyrrolidin-1-yl)ethoxy)benzo[d]oxazole] | 0.1 to 1 | 1000 to 10000 | > 30 | < 100
33 | OC1(c2ccccc2)CCN(CCOc2ccccc2)C1 (stereo not drawn) [Example 93, 1-(2-Phenoxyethyl)-3-phenylpyrrolidin-3-ol] | 0.1 to 1 | 1000 to 10000 | > 30 | 100 to 1000
